Measurements: patent US5605700A (priority 1992, dated 1997)
Entries after “also recorded” stand apart in the source; their conditions may differ.

Key:
MDR-positive cells = conditions: cited from earlier work; for multidrug resistance reversal / chemosensitizing activity: in vitro
[1] = Tissue distribution of toremifene and metabolites after 5 days IP vs. topical toremifene (HPLC), mice with MDA A-1 tumors; conditions: for concentration at 2 h: mouse
Procedure: Sixteen female athymic nude mice were injected with a 20-gauge needle subcutaneously with 5×10^6 MDA A-1 cells in the left scapular area. The tumors were allowed to grow for three weeks prior to treatment.
Each of the three mice were injected IP using an 18 gauge needle with 50 μl, delivering 1 mg/day for five days. […] All mice were sacrificed on the fifth day of treatment two hours after the final dose. Blood specimens were collected by capillary pipette after disruption of axillary vessels and placed into heparinized centrifuge tubes. The brains, livers, and uterus were removed surgically and placed in separate tubes.
All blood samples were centrifuged at 1,000 g. The plasma was collected, measured for volume, and placed in clean extraction tubes. All remaining tissue samples were weighed, placed in extraction tubes, and spiked with an internal standard, nafoxidine. The tissues were thoroughly homogenized before the addition of 6 ml extraction fluid. Samples were collected and dried as described below. Before injection onto the HPLC column, each sample was reconstituted with 200 μl methanol. All samples were placed in a quartz cuvette for UV activation. The brain samples required filtration with disposable syringe filters.

MCF-7 cells = test: Prevention of breast cancer (MCF-7) tumor growth by topical administration in the mouse; assay type: in vivo; conditions: topical 500 μg, 15 days
Procedure: In this study 12 mice were transplanted with MCF-7 cells and were allowed to grow until a small tumor was detected in all mice (<1 mm^3). At that time mice were divided into three groups of four mice each. […] All mice received the same amount of diluent/day (20 μl ). The study was assessed following 15 days of treatment.

[2] = system: estrogen receptors (ER's); conditions: cited from earlier work
[3] = cited from earlier work; for concentration: following large oral doses, read-out: plasma concentration
[4] = system: estrogen receptor (ER) positive metastatic breast cancer; conditions: cited from earlier work
[5] = Tissue distribution of toremifene after single dose (500 μg) IP vs. topical; assay type: in vivo; conditions: mouse, 0.5 mg
Procedure: Single dose toremifene was administered by IP as described above, or topically with DMSO/ETOH/methylcellulose/water as the diluents. […] Tissue samples were collected as above.
All blood samples were centrifuged at 1,000 g. […] Samples were collected and dried as described below. […] The brain samples required filtration with disposable syringe filters.
DMSO and methylcellulose were used as the diluents. […] This was trend noted in both serum and uterus.

MDR MDA A-1 tumors = test: Doxorubicin cytotoxicity enhancement in MDR tumors; clonogenic assay of tumors excised from treated mice; assay type: in vivo, mouse; conditions: for percent inhibition (clonogenic assay): all three tumors, doxorubicin 1 μg/ml 1 hour, 14 days
Procedure: Drug was applied dropwise to the skin surface directly and around the tumor. Each drop was allowed to evaporate completely. This treatment was administered once a day at the same time for a total of five days. […] Tumors were collected sterilely and processed for clonogenic assay.
The remaining portion was cloned following a 1 hour exposure to doxorubicin 1 μg/ml.

[6] = system: spontaneous non-Hodgkin's lymphoma; test: Treatment of spontaneous non-Hodgkin's lymphoma in a baboon; assay type: in vivo
Procedure: Enlarged lymph nodes with diameters of 1-2 cm were evident in the both groins. Toremifene was dissolved in a. mixture of dimethylsulfoxide, ethanol and methylcellulose. […] On day 25 following start of treatment, topical therapy of right groin was re-instituted while continuing the oral treatment. […] The response to therapy was determined by measuring the sizes of the tumors on two perpendicular dimensions.

[7] = Plasma and tissue concentration of toremifene after topical administration in Monodelphis domestica; assay type: in vivo
Procedure: The dose was 0.5 mg/d in 3 and 1 mg/d in 3 animals.

TD 36 = test: Cytostatic effect in melanoma cell line TD 36; assay type: cell-based; conditions: human cell line TD 36; read-out: IC-50 (50% growth inhibitory concentration)
TD 30 A = test: Cytostatic effect in melanoma cell line TD 30 A; assay type: cell-based; conditions: human cell line TD 30 A; read-out: IC-50 (50% growth inhibitory concentration)
SD-MEL-31 = test: Cytostatic effect in metastatic melanoma cell line SD-MEL-31 (text: SK-MEL-31); assay type: cell-based; conditions: human cell line SD-MEL-31; read-out: IC-50 (50% growth inhibitory concentration)
Source text: (§1) The metastatic melanoma cell line, SK-MEL-31, was obtained from the American Type Culture Collection (Rockville, Md.). Two additional human cell lines were derived from portions of surgigally-excised large diameter, superficial spreading melanomas. TD 1.4 was developed from a benign melanoma, whereas TD 7.2 and TD 8 were derived from melanocytic hyperplasias.

TD 8 = test: Cytostatic effect in experimental cell line TD 8; assay type: cell-based; conditions: Monodelphis domestica, read-out: IC-50 (50% growth inhibitory concentration)
Source text: as §1

TD 1.4 = test: Cytostatic effect in experimental cell line TD 1.4; assay type: cell-based; conditions: Monodelphis domestica, read-out: IC-50 (50% growth inhibitory concentration)
Source text: as §1

TD 7.2 = test: Cytostatic effect in experimental cell line TD 7.2; assay type: cell-based; conditions: Monodelphis domestica, read-out: IC-50 (50% growth inhibitory concentration)
Source text: as §1

[8] = system: six cell lines of melanocyte origin; test: Cytostatic effect in all six cell lines of melanocyte origin; assay type: cell-based, human and Monodelphis domestica
Source text: as §1

[9] = brain, topical or ocular, 2.5 mg/day
[10] = liver, topical or ocular, 2.5 mg
[11] = serum, topical or ocular, 2.5 mg
[12] = tumor, topical or ocular, 2.5 mg
[13] = uterus, topical or ocular, 2.5 mg
[14] = oral 1 g on days 15, 17, 19 and 23
[15] = right inguinal lymphoma, topical re-instituted while continuing oral

## COc1ccc(CCN(C)CCCC(C#N)(c2ccc(OC)c(OC)c2)C(C)C)cc1OC (stereo not drawn) [verapamil]
MDR-positive cells
  multidrug resistance reversal / chemosensitizing activity: shown to reverse multidrug resistance in vitro

## CN(C)CCOc1ccc(/C(=C(/CCCl)c2ccccc2)c2ccc(O)cc2)cc1 [4-hydroxytoremifene, 4-chloro-1-(4-hydroxyphenyl)-2-phenyl-1-[4-[2-(N, N-dimethylamino)ethoyoxy]phenyl]-1-butene]
[1]; brain, topical 2.5 mg/day vs IP 1 mg/day, 5 days, listed as Trans 4-hydroxytoremifene
  Topical/IP brain concentration ratio: 1.00
[1]; brain, topical 2.5 mg/day vs IP 1 mg/day, 5 days, listed as trans 4-hydroxytoremifene
  Topical/IP brain concentration ratio: identical
[1]; liver, topical 2.5 mg/day vs IP 1 mg/day, 5 days
  Topical/IP liver concentration ratio: 1.63
[1]; brain, ip, 1 mg/day
  concentration at 2 h: 350 ng/g
[1]; [9]
  concentration at 2 h: 350 ng/g
[1]; liver, ip, 1 mg
  concentration at 2 h: 600 ng/g
[1]; [10]
  concentration at 2 h: 980 ng/g
[1]; serum, ip, 1 mg
  concentration at 2 h: 160 ng/mL
[1]; [11]
  concentration at 2 h: 100 ng/mL
[1]; tumor, ip, 1 mg
  concentration at 2 h: 880 ng/g
[1]; [12]
  concentration at 2 h: 2330 ng/g
[1]; uterus, ip, 1 mg
  concentration at 2 h: 830 ng/g
[1]; [13]
  concentration at 2 h: 700 ng/g
[1]; serum, topical 2.5 mg/day vs IP 1 mg/day, 5 days, listed as Trans 4-hydroxytoremifene
  Topical/IP serum concentration ratio: 0.63
[1]; serum, topical 2.5 mg/day vs IP 1 mg/day, 5 days, listed as trans 4-hydroxytoremifene
  Topical/IP serum concentration ratio: lower
[1]; tumor, topical 2.5 mg/day vs IP 1 mg/day, 5 days, listed as Trans 4-hydroxytoremifene
  Topical/IP tumor concentration ratio: 2.65
[1]; tumor, topical 2.5 mg/day vs IP 1 mg/day, 5 days, listed as trans 4-hydroxytoremifene
  Topical/IP tumor concentration ratio: greater concentrations
[1]; uterus, topical 2.5 mg/day vs IP 1 mg/day, 5 days
  Topical/IP uterus concentration ratio: 0.84
MCF-7 cells
  effect on tumor growth: prevented tumor growth
MCF-7 cells; four mice per group, all four control mice had tumors >6×8 mms
  mice that developed a tumor: only one mouse
MDR-positive cells
  multidrug resistance reversal / chemosensitizing activity: have chemosensitizing activity in MDR-positive cells
[2]
  antiestrogenic potency among metabolites: most potent antiestrogenic metabolite

## CNCCOc1ccc(C(=C(CCCl)c2ccccc2)c2ccccc2)cc1 [N-demethyltoremifene, 4-chloro-1,2-diphenyl-[4-[2-(N-methylamino)ethoxy-]phenyl]-1-butene]
[1]; brain, ip, 1 mg/day
  concentration at 2 h: 490 ng/g
[1]; [9]
  concentration at 2 h: 290 ng/g
[1]; liver, ip, 1 mg
  concentration at 2 h: 940 ng/g
[1]; [10]
  concentration at 2 h: 920 ng/g
[1]; serum, ip, 1 mg
  concentration at 2 h: 180 ng/mL
[1]; [11]
  concentration at 2 h: 80 ng/mL
[1]; tumor, ip, 1 mg
  concentration at 2 h: 1270 ng/g
[1]; [12]
  concentration at 2 h: 8430 ng/g
[1]; uterus, ip, 1 mg
  concentration at 2 h: 1180 ng/g
[1]; [13]
  concentration at 2 h: 560 ng/g
MDR-positive cells
  multidrug resistance reversal / chemosensitizing activity: have chemosensitizing activity in MDR-positive cells
[3]
  concentration: ~10 µM

## CC/C(=C(\c1ccccc1)c1ccc(OCCN(C)C)cc1)c1ccccc1 [tamoxifen]
[4]; ER positive metastatic breast cancer
  fraction of patients with temporary remission: About two-thirds
[4]; adjuvant therapy, women
  endometrial toxicity: increased risk of developing endometrial neoplasms; also recorded: endometrial dysplasia, bleeding, polyp formation and tumors
[2]; inhibition of estrogen-induced growth
  estrogen receptor antagonism: competitive antagonism of tumor estrogen receptors

## CN(C)CCOc1ccc(/C(=C(/CCCl)c2ccccc2)c2ccccc2)cc1 [toremifene]
[5]; serum, ip, Serum toremifene concentration
  concentration at 2 h: 90 ng/mL
[5]; serum, topical or ocular, Serum toremifene concentration, topical in DMSO
  concentration at 2 h: 30 ng/mL
[5]; serum, topical or ocular, Serum toremifene concentration, topical in methylcellulose (MC)
  concentration at 2 h: 20 ng/mL
[5]; tumor, ip, Tumor toremifene concentration
  concentration at 2 h: 2570 ng/g
[5]; tumor, topical or ocular, Tumor toremifene concentration, topical in DMSO
  concentration at 2 h: 4650 ng/g
[5]; tumor, topical or ocular, Tumor toremifene concentration, topical in methylcellulose (MC)
  concentration at 2 h: 1800 ng/g
[5]; uterus, ip, Uterus toremifene concentration
  concentration at 2 h: 23600 ng/g
[5]; uterus, topical or ocular, Uterus toremifene concentration, topical in DMSO
  concentration at 2 h: 920 ng/g
[5]; uterus, topical or ocular, Uterus toremifene concentration, topical in methylcellulose (MC)
  concentration at 2 h: 1100 ng/g
MCF-7 cells
  effect on tumor growth: prevented tumor growth
MDR MDA A-1 tumors; intraperitoneal toremifene
  percent inhibition (clonogenic assay): < 30%
MDR MDA A-1 tumors; topical toremifene
  percent inhibition (clonogenic assay): > 30%
MDR MDA A-1 tumors; topical toremifene, cloning studies (FIG. 2)
  sensitization of tumors to doxorubicin: appears to sensitize these MDR MDA A-1 tumors to doxorubicin
[6]; [14]
  left inguinal lymphoma during oral therapy: stabilized
  right inguinal lymphoma during oral therapy: begun to regrow
[6]; right inguinal lymphoma, 1.4 g topical over 8 days
  response of lymphoma to topical toremifene: clear response
[6]; [15]
  tumor area after reinstituted topical therapy: 24 mm^2
  tumor area before reinstituted topical therapy: 476 mm^2
[6]; topical, regional T-cell lymphoma
  in vivo antitumor response: can produce an in vivo antitumor response
[7]; topical 0.5 mg/day for 5 days
  mean concentration of toremifene in brain: 0.82 ± 0.99 nmol/g
  mean concentration of toremifene in skin: 1296.40 ± 1003.93 nmol/g
[7]; topical 1 mg/day for 5 days
  mean concentration of toremifene in brain: 0.82 ± 0.62 nmol/g
  mean concentration of toremifene in skin: 1237.35 ± 768.90 nmol/g
[7]; topical 0.5 and 1 mg/day for 5 days
  Toremifene concentration in skin as compared to other tissues: more than 500 fold
TD 36
  IC50: 5.8 µM
TD 30 A
  IC50: 7.7 µM
SD-MEL-31
  IC50: 8.1 µM
TD 8
  IC50: 7.7 µM
TD 1.4
  IC50: 9.3 µM
TD 7.2
  IC50: 9.6 µM
[8]; Melanocyte, all six cell lines, read-out: range of IC-50s
  IC50: 5.8 to 9.6 µM
[8]; human and experimental melanomatous cell lines in vitro
  cytostatic effect: clear cytostatic effect
MDR-positive cells; achievable in vivo following oral therapy
  concentration that reverses resistance in vitro: 5 µM
MDR-positive cells
  multidrug resistance reversal / chemosensitizing activity: have chemosensitizing activity in MDR-positive cells
[3]
  concentration: ~10 µM
[3]; high-dose toremifene (400 mg/day)
  systemic toxicity: generally confined to vertigo, nausea and hot flashes

## COc1cccc2c1C(=O)c1c(O)c3c(c(O)c1C2=O)C[C@@](O)(C(=O)CO)C[C@@H]3O[C@H]1C[C@H](N)[C@H](O)[C@H](C)O1 [doxorubicin]
MDR MDA A-1 tumors; mouse not treated with toremifene (FIG. 2)
  sensitivity of tumor to doxorubicin without toremifene: resistant
